Assay results taken from ChEMBL document CHEMBL3046330, “Synthesis and biological activity of hydrazidehydrazones and their corresponding 3-acetyl-2,5-disubstituted-2,3-dihydro-1,3,4-oxadiazoles” (Med Chem Res, 2012).
pIC50: −log10 of the molar value. ≈ marks a conversion by molar mass, not a printed value. Calls of active or inactive are those of the source. The rule behind the calls is not given here.

How the values were obtained:
Candida tropicalis [1] = assay: Antifungal activity against Candida tropicalis NRRL Y-12968 after 24 hr by NCCLS broth microdilution method; assay type: functional; conditions: NRRL Y-12968, 24 h
SK-OV-3 = assay: Cytotoxicity against Homo sapiens (human) SKOV3 cells assessed as cell viability up to 25 ug/ml after 48 hr by neutral red assay; assay type: functional, cell-based
Candida albicans [2] = assay: Antifungal activity against Candida albicans ATCC 90028 after 24 hr by NCCLS broth microdilution method; assay type: functional; conditions: ATCC 90028, 24 h
Candida parapsilosis = assay: Antifungal activity against Candida parapsilosis NRRL Y-12696 after 24 hr by NCCLS broth microdilution method; assay type: functional; conditions: Lodderomyces parapsilosis, NRRL Y-12696, 24 h
Cyberlindnera jadinii = assay: Antifungal activity against Cyberlindnera jadinii NRRL Y-900 after 24 hr by NCCLS broth microdilution method; assay type: functional; conditions: Williopsis jadinii, NRRL Y-900, 24 h
[3] = Cytotoxicity against Sus scrofa (pig) LLC-PK11 cells assessed as cell viability up to 25 ug/ml after 48 hr by neutral red assay; assay type: cell-based; conditions: llc-pk11, 48 h
Candida albicans [4] = assay: Antifungal activity against Candida albicans NRRL Y-12983 after 24 hr by NCCLS broth microdilution method; assay type: functional; conditions: NRRL Y-12983, 24 h
RAW264.7 = assay: Cytotoxicity against Mus musculus (mouse) RAW264.7 cells up to 25 ug/ml; assay type: cell-based
SK-MEL = assay: Cytotoxicity against Homo sapiens (human) SK-MEL cells assessed as cell viability up to 25 ug/ml after 48 hr by neutral red assay; assay type: functional, cell-based
Pichia kudriavzevii = assay: Antifungal activity against Pichia kudriavzevii NRRL Y-7179 after 24 hr by NCCLS broth microdilution method; assay type: functional; conditions: NRRL Y-7179, 24 h
BT-549 = assay: Cytotoxicity against Homo sapiens (human) BT549 cells assessed as cell viability up to 25 ug/ml after 48 hr by neutral red assay; assay type: functional, cell-based
[5] = Inhibition of PMA-induced NFkappaB activity in Homo sapiens (human) SW1353 cells incubated for 30 min followed by PMA induction for 8 hr by luciferase reporter gene assay; assay type: cell-based
Vero = assay: Cytotoxicity against Chlorocebus aethiops (African green monkey) Vero cells assessed as cell viability up to 25 ug/ml after 48 hr by neutral red assay; assay type: cell-based; conditions: chlorocebus sabaeus
[6] = molecular target: T1, Nitric oxide synthase, inducible (Mus musculus) (UniProt P29477); assay: Inhibition of iNOS in Mus musculus (mouse) RAW264.7 cells assessed as inhibition of LPS-induced nitrite production up to 25 ug/ml incubated for 30 min prior to LPS challenge measured after 24 hr by Griess assay relative to vehicle-treated control; assay type: cell-based
T1 sequence (whole entry): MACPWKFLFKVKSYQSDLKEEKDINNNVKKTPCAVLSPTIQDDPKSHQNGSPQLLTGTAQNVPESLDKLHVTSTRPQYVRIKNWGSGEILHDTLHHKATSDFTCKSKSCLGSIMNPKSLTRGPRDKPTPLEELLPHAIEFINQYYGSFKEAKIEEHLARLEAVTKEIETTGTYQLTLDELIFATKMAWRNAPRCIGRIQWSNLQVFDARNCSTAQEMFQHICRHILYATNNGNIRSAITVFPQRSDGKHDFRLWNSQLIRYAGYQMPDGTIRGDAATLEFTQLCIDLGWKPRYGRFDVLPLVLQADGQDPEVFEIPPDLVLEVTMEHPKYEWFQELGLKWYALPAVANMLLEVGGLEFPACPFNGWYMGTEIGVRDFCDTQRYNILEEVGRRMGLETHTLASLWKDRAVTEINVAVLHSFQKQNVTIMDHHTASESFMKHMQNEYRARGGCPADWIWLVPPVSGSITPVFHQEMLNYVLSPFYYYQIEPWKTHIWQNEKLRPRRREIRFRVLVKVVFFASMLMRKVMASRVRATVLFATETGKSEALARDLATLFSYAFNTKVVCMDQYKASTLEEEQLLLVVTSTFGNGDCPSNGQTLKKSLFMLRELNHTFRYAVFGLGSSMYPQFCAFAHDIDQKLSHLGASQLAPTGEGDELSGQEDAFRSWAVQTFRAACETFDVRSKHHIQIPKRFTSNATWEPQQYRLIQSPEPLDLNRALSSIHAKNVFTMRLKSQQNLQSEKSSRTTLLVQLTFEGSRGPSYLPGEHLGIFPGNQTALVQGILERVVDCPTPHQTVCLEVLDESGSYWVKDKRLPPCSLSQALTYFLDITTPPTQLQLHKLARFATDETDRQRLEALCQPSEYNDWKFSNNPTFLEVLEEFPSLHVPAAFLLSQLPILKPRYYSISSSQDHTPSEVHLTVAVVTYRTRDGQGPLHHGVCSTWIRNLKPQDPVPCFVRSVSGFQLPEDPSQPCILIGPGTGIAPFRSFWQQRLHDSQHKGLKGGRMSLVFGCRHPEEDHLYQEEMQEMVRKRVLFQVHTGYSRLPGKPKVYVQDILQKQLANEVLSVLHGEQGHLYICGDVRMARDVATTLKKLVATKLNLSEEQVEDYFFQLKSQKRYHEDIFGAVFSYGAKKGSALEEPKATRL

HL-60 [7] = assay: Antioxidant activity in PMA-stimulated Homo sapiens (human) HL60 cells assessed as inhibition of intracellular ROS generation incubated for 30 min prior to PMA stimulation measured after 30 min by DCFH-DA assay; assay type: functional, cell-based
KB = assay: Cytotoxicity against Homo sapiens (human) KB cells assessed as cell viability up to 25 ug/ml after 48 hr by neutral red assay; assay type: functional, cell-based
Candida tropicalis [8] = assay: Antifungal activity against Candida tropicalis NRRL Y-12968 at 2000 ug/ml by agar diffusion method; assay type: functional; conditions: read-out: IZ
Transcription factor Sp1 = Transcription factor Sp1 (Homo sapiens, UniProt P08047); assay: Inhibition of Sp1 (unknown origin) up to 25 ug/ml by luciferase reporter gene assay
Chain of Transcription factor Sp1 (P08047 whole entry): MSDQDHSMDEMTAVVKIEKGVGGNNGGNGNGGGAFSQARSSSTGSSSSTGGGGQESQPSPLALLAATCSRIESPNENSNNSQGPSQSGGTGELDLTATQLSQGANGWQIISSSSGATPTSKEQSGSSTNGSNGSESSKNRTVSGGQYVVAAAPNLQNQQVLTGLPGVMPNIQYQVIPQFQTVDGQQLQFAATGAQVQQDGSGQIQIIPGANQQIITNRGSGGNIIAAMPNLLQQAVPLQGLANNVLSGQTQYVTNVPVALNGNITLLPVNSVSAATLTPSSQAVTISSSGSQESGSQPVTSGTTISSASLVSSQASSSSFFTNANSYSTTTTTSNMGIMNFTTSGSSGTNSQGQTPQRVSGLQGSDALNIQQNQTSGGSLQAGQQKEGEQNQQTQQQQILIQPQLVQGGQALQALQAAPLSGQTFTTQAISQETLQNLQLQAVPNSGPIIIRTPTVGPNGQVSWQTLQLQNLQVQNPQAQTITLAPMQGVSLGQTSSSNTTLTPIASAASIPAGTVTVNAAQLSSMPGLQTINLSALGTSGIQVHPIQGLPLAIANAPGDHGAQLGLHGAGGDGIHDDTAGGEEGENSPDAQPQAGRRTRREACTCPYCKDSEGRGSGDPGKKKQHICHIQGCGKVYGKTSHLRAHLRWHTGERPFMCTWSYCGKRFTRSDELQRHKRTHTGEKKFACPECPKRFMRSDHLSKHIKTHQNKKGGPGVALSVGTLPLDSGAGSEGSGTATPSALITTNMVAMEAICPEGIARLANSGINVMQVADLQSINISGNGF

Candida albicans [9] = assay: Antifungal activity against Candida albicans clinical isolate after 24 hr by NCCLS broth microdilution method; assay type: functional
Candida albicans [10] = assay: Antifungal activity against Candida albicans clinical isolate at 2000 ug/ml by agar diffusion method; assay type: functional; conditions: read-out: IZ
HL-60 [11] = assay: Cytotoxicity against Homo sapiens (human) HL60 cells up to 25 ug/ml; assay type: cell-based
SW1353 = assay: Inhibition of PMA-induced NFkappaB activity in Homo sapiens (human) SW1353 cells up to 25 ug/ml incubated for 30 min followed by PMA induction for 8 hr by luciferase reporter gene assay; assay type: cell-based
Nakaseomyces glabratus = assay: Antifungal activity against Candida glabrata clinical isolate after 24 hr by NCCLS broth microdilution method; assay type: functional
HL-60 [12] = assay: Cytotoxicity against Homo sapiens (human) HL60 cells; assay type: cell-based
[13] = molecular target: T2, Nitric oxide synthase, inducible (Mus musculus, UniProt P29477); assay: Inhibition of iNOS in Mus musculus (mouse) RAW264.7 cells assessed as inhibition of LPS-induced nitrite production incubated for 30 min prior to LPS challenge measured after 24 hr by Griess assay; assay type: cell-based
T2 sequence (P29477 whole entry): T1 sequence (whole entry)

HL-60 [14] = assay: Antioxidant activity in PMA-stimulated Homo sapiens (human) HL60 cells assessed as inhibition of intracellular ROS generation up to 25 ug/ml incubated for 30 min prior to PMA stimulation measured after 30 min by DCFH-DA assay relative to vehicle-treated control; assay type: functional, cell-based
Colletotrichum fragariae = assay: Antifungal activity against Colletotrichum fragariae at 0.3 to 30 uM after 48 to 72 hr by broth microdilution method; assay type: functional, organism-based
Botrytis cinerea = assay: Antifungal activity against Botryotinia fuckeliana at 0.3 to 30 uM after 48 to 72 hr by broth microdilution method; assay type: functional, organism-based

Row | Structure (SMILES) | MIC (Candida tropicalis [1]) [µg/mL] | Activity (SK-OV-3) | MIC (Candida albicans [2]) [µg/mL] | MIC (Candida parapsilosis) [µg/mL] | MIC (Cyberlindnera jadinii) [µg/mL] | Activity [3] | MIC (Candida albicans [4]) [µg/mL] | Activity (RAW264.7) | Activity (SK-MEL) | MIC (Pichia kudriavzevii) [µg/mL] | Activity (BT-549) | Activity (Vero) | inhibition [6] | IC50 (HL-60 [7]) [µg/mL] | Activity (KB) | zone of inhibition at 2000 µg/mL (Candida tropicalis [8]) [mm] | inhibition (INH) (Transcription factor Sp1) | zone of inhibition at 2000 µg/mL (Candida albicans [10]) [mm] | inhibition (SW1353) | MIC (Nakaseomyces glabratus) [µg/mL] | further results
1 | O=C(N/N=C/c1ccc(F)cc1)c1ccc(F)cc1 | 500 (≈ 1920 µM) | inactive | 500 (≈ 1920 µM) | 500 (≈ 1920 µM) | 500 (≈ 1920 µM) | Not Active | 500 (≈ 1920 µM) | Non-toxic | inactive | 500 (≈ 1920 µM) | inactive | Not Active | inactive | 20 (≈ 76.9 µM) | inactive | 9 | Not Active | 9 |  |  | IC50 [5]: 15 µg/mL (≈ 57.6 µM); MIC (Candida albicans [9]): 250 µg/mL (≈ 961 µM); Activity (HL-60 [11]): Non-toxic
2 | CC(=O)N1N=C(c2ccc(F)cc2)OC1c1ccco1 (configuration not stated) | 500 (≈ 1820 µM) | inactive | 1000 (≈ 3650 µM) | 1000 (≈ 3650 µM) | 500 (≈ 1820 µM) | Not Active | 500 (≈ 1820 µM) | Non-toxic | inactive | 500 (≈ 1820 µM) | inactive | Not Active | inactive | 5.2 (≈ 19 µM) | inactive | 9 | Not Active | 9 | inactive | 500 (≈ 1820 µM) | IC50 (HL-60 [12]): 24 µg/mL (≈ 87.5 µM); MIC (Candida albicans [9]): 500 µg/mL (≈ 1820 µM)
3 | CN(C)c1ccc(/C=N/NC(=O)c2ccc(F)cc2)cc1 | 500 (≈ 1750 µM) | inactive | 500 (≈ 1750 µM) | 500 (≈ 1750 µM) | 500 (≈ 1750 µM) | Not Active | 500 (≈ 1750 µM) | Non-toxic | inactive | 500 (≈ 1750 µM) | inactive | Not Active | inactive | 23 (≈ 80.6 µM) | inactive | 9 | Not Active | 9 | inactive | 125 (≈ 438 µM) | IC50 (HL-60 [12]): > 31.2 µg/mL
4 | COc1ccc(/C=N/NC(=O)c2ccc(F)cc2)cc1O | 250 (≈ 867 µM) | inactive | 500 (≈ 1730 µM) | 500 (≈ 1730 µM) | 500 (≈ 1730 µM) | Not Active | 500 (≈ 1730 µM) | Non-toxic | inactive | 500 (≈ 1730 µM) | inactive | Not Active |  | 0.9 (≈ 3.12 µM) | inactive | 9 | Not Active | 9 | inactive | 250 (≈ 867 µM) | pIC50 [13]: 4.12; Activity (HL-60 [11]): Non-toxic
5 | COc1ccc(/C=N/NC(=O)c2ccc(F)cc2)cc1 | 1000 (≈ 3670 µM) | inactive | 500 (≈ 1840 µM) | 500 (≈ 1840 µM) | 500 (≈ 1840 µM) | Not Active | 500 (≈ 1840 µM) | Non-toxic | inactive | 500 (≈ 1840 µM) | inactive | Not Active | inactive | 2.5 (≈ 9.18 µM) | inactive | 9 | Not Active | 9 | inactive | 250 (≈ 918 µM) | IC50 (HL-60 [12]): 20 µg/mL (≈ 73.5 µM)
6 | Cc1c(C)c2c(c(C)c1O)CCC(C)(C(=O)O)O2 (configuration not stated) [TROLOX] |  |  |  |  |  |  |  |  |  |  |  |  |  | 0.3 (≈ 1.2 µM) |  |  |  |  |  |  | 
7 | O=C(N/N=C/c1ccccc1)c1ccc(F)cc1 |  | inactive | 500 (≈ 2060 µM) | 250 (≈ 1030 µM) | 500 (≈ 2060 µM) | Not Active | 500 (≈ 2060 µM) | Non-toxic | inactive | 500 (≈ 2060 µM) | inactive | Not Active | inactive |  | inactive | 9 |  | 9 |  | 250 (≈ 1030 µM) | IC50 [5]: 2.8 µg/mL (≈ 11.6 µM); Activity (HL-60 [11]): Non-toxic; inhibition (HL-60 [14]): inactive
8 | CC(=O)N1N=C(c2ccc(F)cc2)OC1c1ccc(O)cc1 (configuration not stated) | 250 (≈ 833 µM) | inactive | 500 (≈ 1670 µM) | 250 (≈ 833 µM) | 125 (≈ 416 µM) | Not Active | 500 (≈ 1670 µM) | Non-toxic | inactive | 250 (≈ 833 µM) | inactive | Not Active |  |  | inactive | 9 | Not Active | 9 |  | 500 (≈ 1670 µM) | pIC50 [13]: 6.00; Activity (Colletotrichum fragariae): inactive; IC50 [5]: 5.5 µg/mL (≈ 18.3 µM); Activity (Botrytis cinerea): inactive; MIC (Candida albicans [9]): 250 µg/mL (≈ 833 µM); Activity (HL-60 [11]): Non-toxic; inhibition (HL-60 [14]): inactive
9 | O=C(N/N=C/c1ccco1)c1ccc(F)cc1 | 500 (≈ 2150 µM) | inactive | 500 (≈ 2150 µM) | 500 (≈ 2150 µM) | 500 (≈ 2150 µM) | Not Active | 500 (≈ 2150 µM) | Non-toxic | inactive | 500 (≈ 2150 µM) | inactive | Not Active |  | 0.7 (≈ 3.01 µM) | inactive | 9 | Not Active | 9 | inactive | 250 (≈ 1080 µM) | pIC50 [13]: < 3.97; IC50 (HL-60 [12]): 27 µg/mL (≈ 116 µM); MIC (Candida albicans [9]): 250 µg/mL (≈ 1080 µM)
